# What was measured:
# Assay in all cases: Antifungal activity assay, mycelial growth inhibitory rate method
# Type in all cases: cell-based
# Cytospora sp. = conditions: for inhibition of growth at 100 µg/mL: 100 μg/mL in PDA medium, 28° C., 48-72 h, read-out: Average values of antifungal rate (%) C.s.; for IC50: mycelial growth, PDA medium, 100-0.0488 μg/mL
# Method: (§1) The antifungal activities were evaluated against seven plant phytopathogenic fungi, by the mycelial growth inhibitory rate method, according to a reported method (Yu-Bin Bai, Meng Zhang, Ding Li, Yu Zhao, Liang-Zhu Huang, and Jin-Ming Gao. J. Agric. Food. Chem., 2023, 71, 16, 6236-6248). The target phytopathogenic fungi are Cytospora sp., Alternaria solani Sorauer, Alternaria alternate, Botrytis sp., Botrytis cinerea Pers., Colletotrichum gloeosporioides and Botryosphaeria dothidea. 100 μg/mL PDA mediums were prepared at 50° C. The petri dishes were incubated and cultivated at 28° C. for 48-72 h. Each sample was measured in triplicate, each colony diameter of all triplicates was measured 4 times by cross bracketing method. Hymexazol (Hym) as the positive control and the result of inhibition rate was calculated according to the formula: [formula] • where C represents the diameter of fungal growth on untreated PDA, and T represents the diameter of fungal growth on treated PDA. […] PDA mediums with different compound concentrations (100, 50, 25, 12.5, 6.25, 3.125, 1.5625, 0.78125, 0.3906, 0.1953, 0.0977, 0.0488 μg/mL) was prepared and their half inhibitory concentration (IC50) values were accurately tested. All half inhibitory concentration results are shown in Table 2 and Hymexazol (Hym) as the positive control.
# Botryosphaeria dothidea = conditions: for inhibition of growth at 100 µg/mL: 100 μg/mL in PDA medium, 28° C., 48-72 h, read-out: Average values of antifungal rate (%) B.d.; for IC50: mycelial growth, PDA medium, 100-0.0488 μg/mL
# Method: as §1
# Alternaria alternate = conditions: for inhibition of growth at 100 µg/mL: 100 μg/mL in PDA medium, 28° C., 48-72 h; for IC50: mycelial growth, PDA medium, 100-0.0488 μg/mL
# Method: as §1
# [1] = test system: Colletotrichum gloeosporioides; conditions: for inhibition of growth at 100 µg/mL: 100 μg/mL in PDA medium, 28° C., 48-72 h, read-out: Average values of antifungal rate (%) C.g.; for IC50: mycelial growth, PDA medium, 100-0.0488 μg/mL
# Method: as §1
# Botrytis sp. = conditions: for inhibition of growth at 100 µg/mL: 100 μg/mL in PDA medium, 28° C., 48-72 h, read-out: Average values of antifungal rate (%) B.s.; for IC50: mycelial growth, PDA medium, 100-0.0488 μg/mL
# Method: as §1
# [2] = test system: Alternaria solani Sorauer; conditions: for inhibition of growth at 100 µg/mL: 100 μg/mL in PDA medium, 28° C., 48-72 h, read-out: Average values of antifungal rate (%) A.s.; for IC50: mycelial growth, PDA medium, 100-0.0488 μg/mL
# Method: as §1
# Botrytis cinerea Pers. = conditions: for inhibition of growth at 100 µg/mL: 100 μg/mL in PDA medium, 28° C., 48-72 h, read-out: Average values of antifungal rate (%) B.c.; for IC50: mycelial growth, PDA medium, 100-0.0488 μg/mL
# Method: as §1
IC50 (Botryosphaeria dothidea) [µg/mL],IC50 (Alternaria alternate) [µg/mL],IC50 [1] [µg/mL],IC50 [2] [µg/mL],IC50 (Botrytis cinerea Pers.) [µg/mL],Structure (SMILES),inhibition of growth at 100 µg/mL (Cytospora sp.) [%],IC50 (Cytospora sp.) [µg/mL],inhibition of growth at 100 µg/mL (Botryosphaeria dothidea) [%],inhibition of growth at 100 µg/mL (Alternaria alternate) [%],inhibition of growth at 100 µg/mL [1] [%],inhibition of growth at 100 µg/mL (Botrytis sp.) [%],IC50 (Botrytis sp.) [µg/mL],inhibition of growth at 100 µg/mL [2] [%],inhibition of growth at 100 µg/mL (Botrytis cinerea Pers.) [%]
> 100,> 100,1.92 ± 0.19,> 100,> 50,"COC1=CC(=O)C[C@@H](C)[C@]12Oc1c(Cl)c(OC)cc(OCc3ccccc3F)c1C2=O [Compound 06, 4 Position 2-Fluorobenzyl Griseofulvin Derivative]",6.08,> 100,18.1,3.45,75.6,69.8,> 25,13.1,55.6
> 100,> 100,> 25,> 100,> 100,"CCCCOc1cc(OC)c(Cl)c2c1C(=O)[C@@]1(O2)C(OC)=CC(=O)C[C@H]1C [Compound 03, 4 Position Butyl Griseofulvin Derivative]",29.1,> 100,31.8,7.41,68.4,62.3,> 25,26.9,19.1
> 100,> 100,> 100,> 100,> 100,"COC1=CC(=O)C[C@@H](C)[C@]12Oc1c(Cl)c(OC)cc(OCc3ccc(C(C)=O)cc3)c1C2=O [Compound 08, 4 Position 1-(4-(Methyl)Phenyl)-Ethanone Griseofulvin Derivative]",7.43,> 100,4.7,2.59,26,47.6,> 100,0,43.1
> 100,> 25,> 100,17.85 ± 0.04,> 100,"COC1=CC(=O)C[C@@H](C)[C@]12Oc1c(Cl)c(OC)cc(OCC3CC3)c1C2=O [Compound 04, 4 Position Cyclopropylmethyl Griseofulvin Derivative]",65.5,> 50,26.2,41.4,48,69.8,> 100,70.5,50.7
> 50,> 100,3.82 ± 0.09,> 50,> 25,"COC1=CC(=O)C[C@@H](C)[C@]12Oc1c(Cl)c(OC)cc(OCc3ccsc3)c1C2=O [Compound 07, 4 Position 3-Methylthiophene Griseofulvin Derivative]",54.7,> 50,42.3,43.1,72.4,73.8,17.6 ± 0.27,62.3,59.7

# More lines, now with the values behind:
Structure (SMILES),IC50 (Botryosphaeria dothidea) [µg/mL],IC50 (Alternaria alternate) [µg/mL],IC50 [1] [µg/mL],IC50 [2] [µg/mL],IC50 (Botrytis cinerea Pers.) [µg/mL],inhibition of growth at 100 µg/mL (Cytospora sp.) [%],IC50 (Cytospora sp.) [µg/mL],inhibition of growth at 100 µg/mL (Botryosphaeria dothidea) [%],inhibition of growth at 100 µg/mL (Alternaria alternate) [%],inhibition of growth at 100 µg/mL [1] [%],inhibition of growth at 100 µg/mL (Botrytis sp.) [%],IC50 (Botrytis sp.) [µg/mL],inhibition of growth at 100 µg/mL [2] [%],inhibition of growth at 100 µg/mL (Botrytis cinerea Pers.) [%]
"C=CCOc1cc(OC)c(Cl)c2c1C(=O)[C@@]1(O2)C(OC)=CC(=O)C[C@H]1C [Compound 02, 4 Position Allyl Griseofulvin Derivative]",> 50,> 100,4.05 ± 0.46,14.9 ± 5.66,> 50,52.7,> 50,51.7,49.1,70.1,85.2,3.93 ± 0.8,77,56.9
"COC1=CC(=O)C[C@@H](C)[C@]12Oc1c(Cl)c(OC)cc(OC3CCCC3)c1C2=O [Compound 09, 4 Position Cyclopentyl Griseofulvin Derivative]",> 100,> 100,> 100,> 100,> 25,59.5,> 25,34.2,31,40.9,63.1,> 25,45.9,59.7
"C#CCOc1cc(OC)c(Cl)c2c1C(=O)[C@@]1(O2)C(OC)=CC(=O)C[C@H]1C [Compound 01, 4 Position Propargyl Griseofulvin Derivative]",1.35 ± 0.07,1.28,0.06 ± 0.02,1.32 ± 0.01,2.04 ± 0.12,96.6,1.84 ± 0.01,98,97.4,91.3,100,2.84 ± 0.22,100,98.6
"COCOc1cc(OC)c(Cl)c2c1C(=O)[C@@]1(O2)C(OC)=CC(=O)C[C@H]1C [Compound 05, 4 Position Methoxymethyl Griseofulvin Derivative]",> 25,> 50,16.1 ± 1.3,83.2 ± 14.5,> 25,73.7,81.4 ± 1.23,58.4,49.1,71.7,88.6,31.6 ± 7.3,75.4,66
"Cc1cc(O)no1 [Hym, Hymexazol, reference compound]",> 50,15.58 ± 0.13,> 100,45.3 ± 14,> 6.25,48,> 100,55.6,92.6,43.2,92.5,13.5 ± 1.89,97.4,100
